Where two headings read alike, the source gives them in different places.
Key:
Type in all cases: cell-based
[1] = biological target: T1, 168 GPCRs (Homo sapiens, UniProt P21462)
T1 construct: host or cells: PathHunter cell lines
T1 sequence (P21462 1-350): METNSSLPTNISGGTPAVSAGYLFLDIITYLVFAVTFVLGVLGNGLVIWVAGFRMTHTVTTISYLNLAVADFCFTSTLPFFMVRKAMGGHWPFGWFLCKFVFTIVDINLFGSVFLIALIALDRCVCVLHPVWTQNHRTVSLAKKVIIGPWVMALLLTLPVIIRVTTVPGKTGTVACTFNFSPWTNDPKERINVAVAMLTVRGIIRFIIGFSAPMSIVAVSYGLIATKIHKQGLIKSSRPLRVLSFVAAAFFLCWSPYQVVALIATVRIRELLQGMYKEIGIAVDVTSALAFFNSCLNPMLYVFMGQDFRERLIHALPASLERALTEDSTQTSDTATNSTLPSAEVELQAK

[2] = biological target: T2, 168 GPCRs (Homo sapiens, UniProt P25021)
T2 construct: host or cells: PathHunter cell lines

[3] = biological target: T3, 168 GPCRs (Homo sapiens, UniProt P25101); conditions: EDNRA
T3 construct: host or cells: PathHunter cell lines
T3 sequence (P25101 21-427): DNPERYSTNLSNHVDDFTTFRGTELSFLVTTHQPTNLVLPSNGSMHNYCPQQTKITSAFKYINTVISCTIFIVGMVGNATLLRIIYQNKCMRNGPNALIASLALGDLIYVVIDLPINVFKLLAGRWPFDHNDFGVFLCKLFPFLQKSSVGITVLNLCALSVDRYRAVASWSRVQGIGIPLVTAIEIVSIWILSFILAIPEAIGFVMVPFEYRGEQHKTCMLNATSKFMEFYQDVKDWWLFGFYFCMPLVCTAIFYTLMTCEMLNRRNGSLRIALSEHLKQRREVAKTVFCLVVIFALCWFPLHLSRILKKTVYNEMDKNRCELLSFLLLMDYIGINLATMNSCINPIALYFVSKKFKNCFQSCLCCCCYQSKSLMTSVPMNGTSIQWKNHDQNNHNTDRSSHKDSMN

[4] = biological target: T4, 168 GPCRs (Homo sapiens, UniProt P30556)
T4 construct: host or cells: PathHunter cell lines
T4 sequence (P30556 1-359): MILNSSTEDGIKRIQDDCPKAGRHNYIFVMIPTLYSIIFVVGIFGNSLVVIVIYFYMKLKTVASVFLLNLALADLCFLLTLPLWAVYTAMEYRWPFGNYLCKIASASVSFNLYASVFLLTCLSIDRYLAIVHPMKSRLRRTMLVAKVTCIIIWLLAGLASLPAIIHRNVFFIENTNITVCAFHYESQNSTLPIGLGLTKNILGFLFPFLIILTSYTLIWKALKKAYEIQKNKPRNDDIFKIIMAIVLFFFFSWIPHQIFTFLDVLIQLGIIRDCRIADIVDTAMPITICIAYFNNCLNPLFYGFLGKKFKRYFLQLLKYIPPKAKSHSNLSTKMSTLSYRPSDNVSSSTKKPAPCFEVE

[5] = biological target: T5, 168 GPCRs (Homo sapiens, UniProt P30989); conditions: NTSR1
T5 construct: host or cells: PathHunter cell lines

[6] = biological target: T6, 168 GPCRs (Homo sapiens, UniProt P32745); conditions: SSTR3
T6 construct: host or cells: PathHunter cell lines

[7] = biological target: T7, 168 GPCRs (Homo sapiens, UniProt P35462)
T7 construct: host or cells: PathHunter cell lines

[8] = biological target: T8, 168 GPCRs (Homo sapiens, UniProt Q9H244); conditions: P2RY12
T8 construct: host or cells: PathHunter cell lines

[9] = biological target: T9, 168 GPCRs (Homo sapiens, UniProt Q9Y5Y4)
T9 construct: host or cells: PathHunter cell lines
T9 sequence (Q9Y5Y4 1-395): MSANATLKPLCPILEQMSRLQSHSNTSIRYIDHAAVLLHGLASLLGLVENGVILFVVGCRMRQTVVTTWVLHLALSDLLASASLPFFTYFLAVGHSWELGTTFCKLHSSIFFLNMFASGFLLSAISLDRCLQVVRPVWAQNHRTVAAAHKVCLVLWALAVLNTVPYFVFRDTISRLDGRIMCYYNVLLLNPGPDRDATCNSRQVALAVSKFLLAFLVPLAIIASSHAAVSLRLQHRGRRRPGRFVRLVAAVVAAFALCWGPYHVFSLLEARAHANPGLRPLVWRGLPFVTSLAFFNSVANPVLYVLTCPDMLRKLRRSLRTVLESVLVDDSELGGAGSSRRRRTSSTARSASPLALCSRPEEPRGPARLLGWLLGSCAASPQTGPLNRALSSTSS

T7 sequence (P35462 whole entry): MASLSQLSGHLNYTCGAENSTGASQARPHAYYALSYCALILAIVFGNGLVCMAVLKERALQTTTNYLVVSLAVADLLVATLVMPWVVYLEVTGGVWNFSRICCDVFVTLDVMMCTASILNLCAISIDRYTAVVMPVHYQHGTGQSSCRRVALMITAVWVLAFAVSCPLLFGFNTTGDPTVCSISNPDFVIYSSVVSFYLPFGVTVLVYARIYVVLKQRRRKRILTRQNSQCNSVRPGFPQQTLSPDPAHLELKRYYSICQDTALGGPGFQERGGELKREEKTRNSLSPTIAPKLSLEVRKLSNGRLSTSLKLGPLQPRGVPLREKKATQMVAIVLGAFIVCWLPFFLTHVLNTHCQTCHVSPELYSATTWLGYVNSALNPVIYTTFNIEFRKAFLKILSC
T6 sequence (P32745 whole entry): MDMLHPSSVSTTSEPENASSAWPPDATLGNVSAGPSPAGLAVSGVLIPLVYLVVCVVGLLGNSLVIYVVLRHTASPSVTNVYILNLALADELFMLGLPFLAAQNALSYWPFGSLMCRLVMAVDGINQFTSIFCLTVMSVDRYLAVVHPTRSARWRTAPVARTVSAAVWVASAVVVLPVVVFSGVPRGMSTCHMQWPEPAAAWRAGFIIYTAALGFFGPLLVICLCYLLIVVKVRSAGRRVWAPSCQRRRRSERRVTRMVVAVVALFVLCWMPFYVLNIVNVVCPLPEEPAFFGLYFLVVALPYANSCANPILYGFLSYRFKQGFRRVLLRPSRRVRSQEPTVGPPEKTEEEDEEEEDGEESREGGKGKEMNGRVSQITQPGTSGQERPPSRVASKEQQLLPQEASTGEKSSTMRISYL
T5 sequence (P30989 whole entry): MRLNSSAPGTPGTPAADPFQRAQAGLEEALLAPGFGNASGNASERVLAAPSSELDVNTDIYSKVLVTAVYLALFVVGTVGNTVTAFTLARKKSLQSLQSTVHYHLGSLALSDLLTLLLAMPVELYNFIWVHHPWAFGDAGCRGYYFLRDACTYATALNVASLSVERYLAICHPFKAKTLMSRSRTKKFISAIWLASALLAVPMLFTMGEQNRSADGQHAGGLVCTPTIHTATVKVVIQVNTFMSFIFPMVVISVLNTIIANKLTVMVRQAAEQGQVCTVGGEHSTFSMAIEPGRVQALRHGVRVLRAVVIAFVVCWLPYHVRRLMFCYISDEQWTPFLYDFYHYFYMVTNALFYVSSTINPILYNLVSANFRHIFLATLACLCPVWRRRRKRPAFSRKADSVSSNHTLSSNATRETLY
T8 sequence (Q9H244 whole entry): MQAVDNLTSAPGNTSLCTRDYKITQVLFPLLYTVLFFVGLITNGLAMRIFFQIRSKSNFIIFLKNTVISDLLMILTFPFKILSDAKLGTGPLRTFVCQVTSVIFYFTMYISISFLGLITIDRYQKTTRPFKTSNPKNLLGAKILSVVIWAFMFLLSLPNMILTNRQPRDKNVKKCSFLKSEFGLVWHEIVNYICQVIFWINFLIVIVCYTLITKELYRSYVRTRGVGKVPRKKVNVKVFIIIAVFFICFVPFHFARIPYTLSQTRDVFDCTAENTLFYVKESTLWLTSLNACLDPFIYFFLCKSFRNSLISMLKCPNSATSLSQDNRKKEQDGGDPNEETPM
T2 sequence (P25021 whole entry): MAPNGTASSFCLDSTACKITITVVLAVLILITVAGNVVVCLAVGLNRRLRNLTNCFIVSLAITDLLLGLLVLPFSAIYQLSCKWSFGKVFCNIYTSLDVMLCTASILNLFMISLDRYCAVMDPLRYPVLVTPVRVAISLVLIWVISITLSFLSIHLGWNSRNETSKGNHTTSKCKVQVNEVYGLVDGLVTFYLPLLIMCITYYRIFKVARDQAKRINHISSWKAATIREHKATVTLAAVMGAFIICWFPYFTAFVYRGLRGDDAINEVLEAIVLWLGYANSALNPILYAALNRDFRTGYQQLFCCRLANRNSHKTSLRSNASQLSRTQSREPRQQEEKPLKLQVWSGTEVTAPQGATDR

| SMILES | % Agonist Activity ([1]; FPR1, 1 uM) [%] | % Antagonist Activity ([1]; FPR1, 1 uM) [%] | % Agonist Activity ([1]; FPR1, 10 uM) [%] | % Antagonist Activity ([1]; FPR1, 10 uM) [%] | % Agonist Activity ([2]; HRH2, 1 uM) [%] | % Antagonist Activity ([2]; HRH2, 1 uM) [%] | % Agonist Activity ([2]; HRH2, 10 uM) [%] | % Antagonist Activity ([2]; HRH2, 10 uM) [%] | % Agonist Activity ([3]; 1 uM) [%] | % Antagonist Activity ([3]; 1 uM) [%] | % Agonist Activity ([3]; 10 uM) [%] | % Antagonist Activity ([3]; 10 uM) [%] | % Agonist Activity ([4]; AGTR1, 1 uM) [%] | % Antagonist Activity ([4]; AGTR1, 1 uM) [%] | % Agonist Activity ([4]; AGTR1, 10 uM) [%] | % Antagonist Activity ([4]; AGTR1, 10 uM) [%] | % Agonist Activity ([5]; Conc 1 uM) [%] | % Antagonist Activity ([5]; Conc 1 uM) [%] | % Agonist Activity ([5]; Conc 10 uM) [%] | % Antagonist Activity ([5]; Conc 10 uM) [%] | other results |
| --- | --- | --- | --- | --- | --- | --- | --- | --- | --- | --- | --- | --- | --- | --- | --- | --- | --- | --- | --- | --- | --- |
| CNC(C)C(=O)c1ccc2c(c1)OCO2 (stereo not drawn) [methylone] | 2.2 | -4.9 | 0.5 | -11.4 | -2.5 | 7.1 | -2.8 | 8.1 | 0.3 | -2.4 | 1.4 | -11.3 | -2.8 | 3.3 | -1 | -1.4 | -4.7 | -0.7 | -3.5 | -1.7 | % Agonist Activity ([6]; Conc 1 uM): 0.7%; % Antagonist Activity ([6]; Conc 1 uM): 13.2%; % Agonist Activity ([6]; Conc 10 uM): 0.3%; % Antagonist Activity ([6]; Conc 10 uM): 8%; % Agonist Activity ([7]; DRD3, 1 uM): 2.2%; % Antagonist Activity ([7]; DRD3, 1 uM): -12%; % Agonist Activity ([7]; DRD3, 10 uM): 2.3%; % Antagonist Activity ([7]; DRD3, 10 uM): -17.8%; % Agonist Activity ([8]; Conc 1 uM): -1.5%; % Antagonist Activity ([8]; Conc 1 uM): -14.8%; % Agonist Activity ([8]; Conc 10 uM): -2.5%; % Antagonist Activity ([8]; Conc 10 uM): -10.4%; % Agonist Activity ([9]; CRTH2, 1 uM): -5.7%; % Antagonist Activity ([9]; CRTH2, 1 uM): 9%; % Agonist Activity ([9]; CRTH2, 10 uM): -5%; % Antagonist Activity ([9]; CRTH2, 10 uM): 8.9% |
| CNC(C)Cc1ccc2c(c1)OCO2 (stereo not drawn) [MDMA, 3,4-Methylenedioxy methamphetamine, reference compound] | 4.4 | 4.5 | 3.7 | 2.5 | 3.3 | 8.4 | -3.7 | 15.3 | -1.1 | 2.5 | -1.9 | 4.6 | 3.5 | -17.7 | 3.2 | -14.5 | -0.8 | 8.7 | 1.2 | 0.5 | % Agonist Activity ([6]; Conc 1 uM): 2.9%; % Antagonist Activity ([6]; Conc 1 uM): 3.7%; % Agonist Activity ([6]; Conc 10 uM): 0.1%; % Antagonist Activity ([6]; Conc 10 uM): -0.9%; % Agonist Activity ([7]; DRD3, 1 uM): 7.1%; % Antagonist Activity ([7]; DRD3, 1 uM): 9.6%; % Agonist Activity ([7]; DRD3, 10 uM): 7.3%; % Antagonist Activity ([7]; DRD3, 10 uM): 10.6%; % Agonist Activity ([8]; Conc 1 uM): -1.6%; % Antagonist Activity ([8]; Conc 1 uM): 8.6%; % Agonist Activity ([8]; Conc 10 uM): -0.6%; % Antagonist Activity ([8]; Conc 10 uM): 5.9%; % Agonist Activity ([9]; CRTH2, 1 uM): -4.1%; % Antagonist Activity ([9]; CRTH2, 1 uM): 19.8%; % Agonist Activity ([9]; CRTH2, 10 uM): -3%; % Antagonist Activity ([9]; CRTH2, 10 uM): 17.2% |

— PMC10882719 (Frontiers in Neuroscience, 2024)
